{"source": "PubChem BioAssay (NCI)", "note": "“And” between values parts separate entries of the source, which are not always exact repeats. Equal values may be shown once.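 In this assay, cells in 96-well plates receive the compound at five concentrations for 48 hours. Endpoints are linearly interpolated between the surrounding concentrations. At the GI50, growth is halved. Definition used: TGI = concentration required for complete inhibition of growth.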", "data": [{"tested_on": "MDA-MB-468 breast", "assay": "NCI tumour cell line growth inhibition, 48 h", "values": [{"molecule": "CCCCCCCCCCCCCC(=S)NCCCC[C@H](NC(=O)OCc1ccccc1)C(=O)Nc1ccccc1", "GI50": "2690 nM", "TGI": "> 100 µM"}, {"molecule": "CC1(C)N=C(N)N=C(N)N1c1ccc(CCCCc2ccc(S(=O)(=O)F)cc2)cc1", "GI50": "539 nM", "TGI": "9.33 µM"}, {"molecule": "O=C(Nc1cccc(-n2ccc3c(NC(=O)c4ccccc4)nccc32)c1)c1cccc(C(F)(F)F)c1", "GI50": "29.5 nM", "TGI": "1.54 µM"}, {"molecule": "CN=C(N)N/N=C(\\c1ccccc1)c1ccc(Br)cc1", "GI50": "275 nM", "TGI": "1.08 µM"}, {"molecule": "COc1c(C2CC(=O)Nc3c2cnn3Cc2ccco2)cc2c(c1OC)OCO2", "note": "(configuration not stated)", "GI50": "318 nM", "TGI": "> 100 µM"}, {"molecule": "COc1ccc(C(=O)Nc2ncc(Cc3ccc(Cl)cc3)s2)cc1", "GI50": "37.8 nM", "TGI": "17.5 µM"}, {"molecule": "COc1cccc(/C=C/C(=O)c2cc3c(N)c(C(=O)Nc4ccccc4C)sc3nc2C)c1", "GI50": "887 nM", "TGI": "2.04 µM"}, {"molecule": "C#Cc1nc(C(=O)NCCC(=O)Nc2ccc(NC(=O)c3ccc(/C=C/C(=O)c4nccn4C)cc3)cc2)cs1", "GI50": "891 nM", "TGI": "2.17 µM"}, {"molecule": "O=C(NNc1nc2c(F)cccc2n2cccc12)c1cnccn1", "GI50": "535 nM", "TGI": "2.17 µM"}, {"molecule": "C=CC(=O)N[C@H]1C=C(C)c2c(-c3cnc4ccccc4c3)c3c(N)ncnc3n2C1", "GI50": "26.5 nM", "TGI": "0.485 µM"}, {"molecule": "CNC(=O)c1ccccc1CC1(O)c2ccccc2Oc2ccccc21", "GI50": "3550 nM", "TGI": "20.5 µM"}, {"molecule": "CN1CCN(CC#Cc2cccc(C(=O)c3cnn(-c4ccc(F)cc4)c3N)c2)CC1", "GI50": "> 25000 nM", "TGI": "> 25 µM"}, {"molecule": "CN1CCN(Cc2ccc(C(=O)Nc3cncc(C#Cc4cnc(N)c5ccccc45)c3)cc2C(F)(F)F)CC1", "GI50": "1770 nM", "TGI": "3.65 µM"}, {"molecule": "CN(C)CC(=O)N1CCC(c2ccc(NC(=O)c3ncc(C#N)[nH]3)c(C3=CCCCC3)c2)CC1", "GI50": "4860 nM", "TGI": "18.5 µM"}, {"molecule": "Brc1cccc(-c2cc(-c3ccc4c(c3)OCCO4)[nH]n2)c1", "GI50": "5600 nM", "TGI": "33.5 µM"}, {"molecule": "COc1cc(/C=C\\[N+](=O)[O-])ccc1O", "GI50": "1690 nM", "TGI": "3.5 µM"}, {"molecule": "CCn1c(SCC(=O)Nc2cccc(C(=O)/C=C/c3cc(OC)c(OC)c(OC)c3)c2)nc2ccccc2c1=O", "GI50": "4220 nM", "TGI": "40.2 µM"}, {"molecule": "CCC(C)C1NC(=O)c2nc(oc2-c2ccccc2)-c2csc(n2)-c2csc(n2)-c2nc(oc2C)-c2coc(n2)CNC(=O)C(C(C)CC)NC1=O", "note": "(configuration not stated)", "GI50": "30 nM", "TGI": "0.101 µM"}, {"molecule": "C[C@@H]1CC[C@@H]2[C@@H]1[C@H](OC(=O)/C=C/c1ccccc1)[C@]1(c3ccccc3)C[C@@H](OC(=O)CO)[C@@]2(C)O1", "GI50": "13600 nM", "TGI": "29 µM"}, {"molecule": "O=C(CSc1nc2ccc([N+](=O)[O-])cc2[nH]1)Nc1ccc(F)c(Cl)c1", "GI50": "1170 nM", "TGI": "5.07 µM"}, {"molecule": "Cc1ccc2c(C(C[N+](=O)[O-])c3cccs3)c(-c3ccccc3)[nH]c2c1", "note": "(configuration not stated)", "GI50": "820 nM", "TGI": "3.02 µM"}, {"molecule": "N#CC(=C1SCS1)[N+](=O)[O-]", "GI50": "249 nM", "TGI": "0.846 µM"}, {"molecule": "COc1cc2c3c(cccc3c1)C(=O)N(CCN1CCCC1)C2=O", "GI50": "1320 nM", "TGI": "3.7 µM"}, {"molecule": "COC1(C(=O)N2Cc3nc(Cl)nc(N[C@H](C)c4cc(N)cc(C(F)(F)F)c4)c3C2)CCOCC1", "GI50": "4440 nM", "TGI": "40.1 µM"}, {"molecule": "CCN1CCN(c2nc(NCCCNc3ccnc4cc(Cl)ccc34)c3ccccc3n2)CC1", "GI50": "1620 nM", "TGI": "3.61 µM"}, {"molecule": "COc1ccccc1NC1=C(Cl)C(=O)c2nc(C)ccc2C1=O", "GI50": "1520 nM", "TGI": "3.06 µM"}, {"molecule": "COc1ccc(-c2nn(-c3cccc(Cl)c3)cc2C2CC(c3ccccc3)=NN2C(C)=O)cc1", "note": "(configuration not stated)", "GI50": "16300 nM", "TGI": "> 100 µM"}, {"molecule": "Nc1n[nH]c2ccc([C@@H]3Nc4ccc5[nH]ncc5c4[C@H]4[C@H]5CCC(C5)[C@H]43)cc12", "GI50": "249 nM", "TGI": "1.42 µM"}, {"molecule": "Fc1cccc(COc2ccc(Nc3ncncc3C#Cc3ccccc3)cc2Cl)c1", "GI50": "8770 nM", "TGI": "> 25 µM"}, {"molecule": "Cc1cc([C@@H](C)Nc2ccccc2C(=O)O)c2nc(N3CCOCC3)cc(=O)n2c1", "GI50": "2210 nM", "TGI": "> 10 µM"}, {"molecule": "CC(C)(C)c1cc(O)c(O)c(C(C)(C)C)c1", "GI50": "2140 nM", "TGI": "4.77 µM"}, {"molecule": "Cc1nn(-c2ccc(F)cc2)c2ncnc(Nc3ccc(NC(=O)Nc4ccc(Cl)c(C(F)(F)F)c4)cc3)c12", "GI50": "1800 nM", "TGI": "4.54 µM"}, {"molecule": "O=C(Nc1nc2ccccc2s1)OCC(F)(F)F", "GI50": "> 100000 nM", "TGI": "> 100 µM"}, {"molecule": "Clc1ccccc1C(c1ccccc1)(c1ccccc1)n1ccnc1", "GI50": "1770 nM", "TGI": "6.21 µM"}, {"molecule": "CCn1c(-c2nonc2N)nc2c(C#CCN)ncc(OCCCN)c21", "GI50": "> 25000 nM", "TGI": "> 25 µM"}, {"molecule": "NC(N)=N/N=C(/c1ccccc1)c1ccc(F)cc1", "GI50": "220 nM", "TGI": "2.46 µM"}, {"molecule": "Cc1ccn2c3c(c(C(=O)O)c2c1)C(=O)c1ccccc1C3=O", "GI50": "17300 nM", "TGI": "> 100 µM"}, {"molecule": "COc1ccc(C(=S)N2CCN(c3cccc(Cl)c3)CC2)cc1", "GI50": "32300 nM", "TGI": "> 100 µM"}, {"molecule": "COC(=O)C(=O)CC(=O)CCn1ncc(Cl)c(Cl)c1=O", "GI50": "7010 nM", "TGI": "22.5 µM"}, {"molecule": "Cc1cc2nc3c4cc(Cl)ccc4n(CCN(C)C)c3nc2cc1C", "GI50": "1410 nM", "TGI": "3.58 µM"}, {"molecule": "C=C1C(=O)O[C@H]2[C@H]1CC/C(CNC(=O)c1c[nH]c3ccc(F)cc13)=C\\CC[C@@]1(C)O[C@@H]21", "GI50": "658 nM", "TGI": "2.06 µM"}, {"molecule": "Oc1ccccc1/C=N/Nc1ccc2ccccc2n1", "GI50": "2600 nM", "TGI": "14.8 µM"}, {"molecule": "COc1cc2ncn(-c3cc(OCc4ccccc4Cl)c(C(N)=O)s3)c2cc1OC", "GI50": "49.9 nM", "TGI": "0.429 µM"}, {"molecule": "O=c1cc(-c2cccc(F)c2)[nH]c2cc3c(cc12)OCO3", "GI50": "10800 nM", "TGI": "45.2 µM"}, {"molecule": "CC(=O)Nc1cccc(-n2c(=O)n(C3CC3)c(=O)c3c(Nc4ccc(I)cc4F)n(C)c(=O)c(C)c32)c1", "GI50": "2820 nM and > 10000 nM", "TGI": "23.6 µM and > 10 µM"}, {"molecule": "Cc1[nH]c(/C=C2\\C(=O)Nc3ccc(S(=O)(=O)Cc4c(Cl)cccc4Cl)cc32)c(C)c1C(=O)N1CCC[C@@H]1CN1CCCC1", "GI50": "1520 nM", "TGI": "2.94 µM"}]}]}
